Results taken from patent publication US11806341B2, “Methods of diagnosing and treating anxiety disorder” (THE CHILDREN'S HOSPITAL OF PHILADELPHIA, priority 2015, dated 2023).
“Also recorded” adds a separate entry of the source.

How the values were obtained:
[1] = tested on: adolescent subjects previously diagnosed with ADHD who also had at least one genetic alteration in an mGluR network gene; test: Open-label Phase 1b clinical trial of NFC-1 in adolescent ADHD subjects with a CNV in an mGluR network gene; format: in vivo, human
[2] = tested on: dementia-related cognitive impairment; settings: Phase I-III trials, dementia-related indications; cited from earlier work
[3] = tested on: adolescent subjects previously diagnosed with ADHD who also had at least one genetic alteration in an mGluR network gene; settings: recently completed precision-medicine-based clinical trial; cited from earlier work
[4] = tested on: group I and group II/III mGluRs; settings: Hirouchi 2000; cited from earlier work

Row | SMILES | OCD symptoms during therapy ([1]; eight of the 30 ADHD subjects with symptoms of OCD) | dermatillomania symptoms (ear scratching, bleeding ulcer) during therapy ([1]; one subject with OCD and a history of ear scratching) | score on Vanderbilt Scale items related to anxiety (nos. 41, 42, and 47) ([1]; week 5, two subjects, all 3 items, at enrollment maximum score of 3 on 2 of the 3 items) | total "never" score for all BRIEF anxiety/mood questions for all subjects ([1]; week 5 of dose escalation (50-400 mg bid), all 30 subjects, score at enrollment was 125) | total "often" score for all BRIEF anxiety/mood questions for all subjects ([1]; week 5 of dose escalation (50-400 mg bid), all 30 subjects, score at enrollment was 154) | safety and tolerability [2] | treatment of ADHD in subjects having a genetic alteration in an mGluR network gene [3] | activation of mGluRs in vitro [4]
1 | O=C1CC[C@H](C(=O)N2CCCCC2)N1 [NFC-1, fasoracetam monohydrate] | OCD symptoms improved | dermatillomania symptoms had reduced | 3 | 191 | 77 | generally safe and well tolerated | – | –
2 | O=C1CC[C@H](C(=O)N2CCCCC2)N1 [fasoracetam] | – | – | – | – | – | – | successfully treated | nonselective activator against all classes of mGluRs; also recorded: can stimulate both group I and group II/III mGluRs
